This test concerns L1210 leukemia ip in BDF1 mice, survival T/C. As to the kind of experiment: NCI In Vivo Anticancer Drug Screen. Data for tumor model L1210 Leukemia (intraperitoneal) in B6D2F1 (BDF1) mice. Conditions: endpoint: mean survival time, higher = longer survival. In a few lines: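 Transplanted-tumor mice were given test agent; controls received vehicle only. Survival readings from the two groups were divided (treated over control).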

Where [1] appears, read: dose: 50.0 mg/kg/injection, schedule: Q01DX001 (ip), vehicle: carboxymethylcellulose (CMC).
Where [2] appears, read: dose: 100.0 mg/kg/injection, schedule: Q01DX001 (ip), vehicle: carboxymethylcellulose (CMC).
Setting [3] is: dose: 200.0 mg/kg/injection, schedule: Q01DX001 (ip), vehicle: carboxymethylcellulose (CMC).
The mark [4] stands for this setting: dose: 400.0 mg/kg/injection, schedule: Q01DX001 (ip), vehicle: carboxymethylcellulose (CMC).
Setting [5] is: dose: 100.0 mg/kg/injection, schedule: Q04DX002 (ip), vehicle: Klucel (hydroxypropylcellulose) (HPC).
Setting [6] is: dose: 200.0 mg/kg/injection, schedule: Q04DX002 (ip), vehicle: Klucel (hydroxypropylcellulose) (HPC).
Setting [7] is: dose: 400.0 mg/kg/injection, schedule: Q04DX002 (ip), vehicle: Klucel (hydroxypropylcellulose) (HPC).
The mark [8] stands for this setting: dose: 100.0 mg/kg/injection, schedule: Q01DX009 (ip), vehicle: Klucel (hydroxypropylcellulose) (HPC).
The mark [9] stands for this setting: dose: 200.0 mg/kg/injection, schedule: Q01DX009 (ip), vehicle: Klucel (hydroxypropylcellulose) (HPC).
Setting [10] is: dose: 400.0 mg/kg/injection, schedule: Q01DX009 (ip), vehicle: Klucel (hydroxypropylcellulose) (HPC).
Setting [11] is: dose: 100.0 mg/kg/injection, schedule: Q01DX001 (ip), vehicle: saline.
Where [12] appears, read: dose: 200.0 mg/kg/injection, schedule: Q01DX001 (ip), vehicle: saline.
Setting [13] is: dose: 400.0 mg/kg/injection, schedule: Q01DX001 (ip), vehicle: saline.
[14] abbreviates: dose: 100.0 mg/kg/injection, schedule: Q04DX002 (ip), vehicle: saline.
The mark [15] stands for this setting: dose: 200.0 mg/kg/injection, schedule: Q04DX002 (ip), vehicle: saline.

Toxic doses and inconclusive results are not listed.

With `CCCO[Si](C)(C)CCl`, the T/C runs as follows: under setting [1], 92 % of control; under setting [2], 92 % of control; under setting [3], 92 % of control; under setting [4], 98 % of control.
For the compound `COC(=O)c1cc2c(cc1[N+](=O)[O-])OCO2`, the T/C under setting [5] is 114 % of control, the T/C under setting [6] was 114 % of control and the T/C under setting [7] is 95 % of control.
With `CC(=O)Nc1ccc(S(=O)(=O)N(C)Cc2ccccc2)cc1`, the T/C runs as follows: under setting [8], 94 % of control; under setting [9], 102 % of control; under setting [10], 107 % of control.
Regarding `O=C(Nc1cccc(F)c1)Nc1ccc(Cl)cc1Cl`, the T/C by setting is: under setting [8], 96 % of control; under setting [9], 91 % of control.
In the case of `NC1CCS(=O)(=O)C1` (stereo not drawn), the T/C by setting is: under setting [11], 95 % of control; under setting [12], 98 % of control; under setting [13], 101 % of control.
Regarding `COc1cc(OC)c(NC(=O)Nc2cc([N+](=O)[O-])ccc2C)cc1Cl`, the T/C reads like this: under setting [5], 97 % of control; under setting [6], 108 % of control; under setting [7], 114 % of control.
For `ClC12CCC(CC1)C2`, the T/C was 96 % of control under setting [14]; 104 % of control under setting [15]; 93 % of control (dose: 400.0 mg/kg/injection, schedule: Q04DX002 (ip), vehicle: saline).
For the compound `COc1cc2c(cc1OC)C(NNC(C)=O)CCCC2` (stereo not drawn), the T/C is 97 % of control under setting [11], 97 % of control under setting [12] and 103 % of control under setting [13].
As for `CN1C(=O)N(C)C2(CCCC2)C1=O`, the T/C is 107 % of control under setting [2], 104 % of control under setting [3] and 104 % of control under setting [4].
With `CC1=NN(c2ccccc2)C(=O)C1N=Nc1ccc(S(=O)(=O)Nc2nccs2)cc1` (stereo not drawn), the T/C under setting [11] is 96 % of control, the T/C under setting [12] is 91 % of control and the T/C under setting [13] is 91 % of control.
Take `O=C(Cl)CNS(=O)(=O)c1ccccc1`: the T/C reads like this: (dose: 100.0 mg/kg/injection, schedule: Q01DX001 (ip), vehicle: other) 106 % of control; (dose: 200.0 mg/kg/injection, schedule: Q01DX001 (ip), vehicle: other) 108 % of control; (dose: 400.0 mg/kg/injection, schedule: Q01DX001 (ip), vehicle: other) 111 % of control.
As to `Nc1ncnc2c1CP(=O)(c1ccccc1)CC2` (stereo not drawn), the T/C is 103 % of control (dose: 100.0 mg/kg/injection, schedule: Q04DX002 (ip), vehicle: saline with Tween-80); 103 % of control (dose: 200.0 mg/kg/injection, schedule: Q04DX002 (ip), vehicle: saline with Tween-80); 103 % of control (dose: 400.0 mg/kg/injection, schedule: Q04DX002 (ip), vehicle: saline with Tween-80).
As to `COc1ccc(CCCCO)cc1`, the T/C (dose: 100.0 mg/kg/injection, schedule: Q01DX001 (ip), vehicle: acetone) was 96 % of control; the T/C (dose: 200.0 mg/kg/injection, schedule: Q01DX001 (ip), vehicle: acetone) was 102 % of control; the T/C (dose: 400.0 mg/kg/injection, schedule: Q01DX001 (ip), vehicle: acetone) is 86 % of control.
On to `O=C(Nc1cccc(Cl)c1Cl)Oc1ccc(F)cc1Cl`, for which the T/C under setting [8] was 108 % of control, the T/C under setting [9] was 108 % of control and the T/C under setting [10] is 113 % of control.
On to `CCC/C(=N\Nc1ccc([N+](=O)[O-])cc1[N+](=O)[O-])c1cccc([N+](=O)[O-])c1`, for which the T/C (dose: 100.0 mg/kg/injection, schedule: Q04DX003 (ip), vehicle: Klucel (hydroxypropylcellulose) (HPC)) was 93 % of control; the T/C (dose: 200.0 mg/kg/injection, schedule: Q04DX003 (ip), vehicle: Klucel (hydroxypropylcellulose) (HPC)) is 92 % of control; the T/C (dose: 400.0 mg/kg/injection, schedule: Q04DX003 (ip), vehicle: Klucel (hydroxypropylcellulose) (HPC)) is 97 % of control.
Turning to `O=C1c2ccccc2C(=O)N1c1ccc(Br)cc1`, the T/C reads like this: (dose: 100.0 mg/kg/injection, schedule: Q01DX001 (ip), vehicle: Klucel (hydroxypropylcellulose) (HPC)) 101 % of control; (dose: 200.0 mg/kg/injection, schedule: Q01DX001 (ip), vehicle: Klucel (hydroxypropylcellulose) (HPC)) 104 % of control; (dose: 400.0 mg/kg/injection, schedule: Q01DX001 (ip), vehicle: Klucel (hydroxypropylcellulose) (HPC)) 104 % of control.
With `COc1ncnc2c1c(C#N)cn2C1OC(CO)C(O)C1O` (stereo not drawn), the T/C is, setting by setting: (dose: 6.25 mg/kg/injection, schedule: Q01DX009 (ip), vehicle: saline) 124 % of control; (dose: 50.0 mg/kg/injection, schedule: Q01DX009 (ip), vehicle: saline) 119 % of control; (dose: 100.0 mg/kg/injection, schedule: Q01DX009 (ip), vehicle: saline) 169 % of control; (dose: 200.0 mg/kg/injection, schedule: Q01DX005 (ip), vehicle: saline) 93 % of control.
Take `O=C(NCc1ccccc1)C1C2C=CC(C2)C1C(=O)NCc1ccccc1` (stereo not drawn): the T/C (dose: 100.0 mg/kg/injection, schedule: Q04DX003 (ip), vehicle: saline with Tween-80) is 96 % of control; the T/C (dose: 200.0 mg/kg/injection, schedule: Q04DX003 (ip), vehicle: saline with Tween-80) is 91 % of control; the T/C (dose: 400.0 mg/kg/injection, schedule: Q04DX003 (ip), vehicle: saline with Tween-80) was 91 % of control.
Regarding `C=C/C=C\N(CC)CC`, the T/C by setting is: (dose: 6.25 mg/kg/injection, schedule: Q01DX009 (ip), vehicle: water) 98 % of control; (dose: 12.5 mg/kg/injection, schedule: Q01DX009 (ip), vehicle: water) 97 % of control; (dose: 25.0 mg/kg/injection, schedule: Q01DX009 (ip), vehicle: water) 104 % of control; (dose: 25.0 mg/kg/injection, schedule: Q04DX003 (ip), vehicle: water) 95 % of control; (dose: 50.0 mg/kg/injection, schedule: Q01DX009 (ip), vehicle: water) 98 % of control; (dose: 50.0 mg/kg/injection, schedule: Q04DX003 (ip), vehicle: water) 88 % of control. Besides, for the setting “dose: 100.0 mg/kg/injection, schedule: Q04DX003 (ip), vehicle: water”, the T/C was 100 % of control.
In the case of `CC(=O)OC1C(C2CSC(=O)O2)OC2OC(C)(C)OC21` (stereo not drawn), the T/C was 89 % of control (dose: 25.0 mg/kg/injection, schedule: Q04DX002 (ip), vehicle: saline); 103 % of control (dose: 50.0 mg/kg/injection, schedule: Q04DX002 (ip), vehicle: saline); 92 % of control under setting [14].
As to `Nc1ccccc1NC(=O)C(F)(F)F`, the T/C is, setting by setting: under setting [1], 93 % of control; under setting [2], 97 % of control; under setting [3], 98 % of control; under setting [4], 108 % of control.
Turning to `CCN(CC)CC(=O)NCC(CCN1CCCC1)(CC(C)C)c1cccc2ccccc12` (stereo not drawn), the T/C by setting is: under setting [14], 97 % of control; under setting [15], 94 % of control.
In the case of `N=C(N)c1cccc(NC(=O)c2ccc(C(=O)Nc3cccc(C(=N)N)c3)cc2)c1`, the T/C is, setting by setting: (dose: 8.0 mg/kg/injection, schedule: Q01DX Z (ip), vehicle: carboxymethylcellulose (CMC)) 95 % of control; (dose: 15.0 mg/kg/injection, schedule: Q01DX Z (ip), vehicle: saline) 95 % of control; (dose: 16.0 mg/kg/injection, schedule: Q01DX Z (ip), vehicle: carboxymethylcellulose (CMC)) 96 % of control; (dose: 30.0 mg/kg/injection, schedule: Q01DX Z (ip), vehicle: saline) 120 % of control; (dose: 31.0 mg/kg/injection, schedule: Q01DX Z (ip), vehicle: carboxymethylcellulose (CMC)) 106 % of control; (dose: 60.0 mg/kg/injection, schedule: Q01DX Z (ip), vehicle: saline) 104 % of control. In addition, the T/C (dose: 62.0 mg/kg/injection, schedule: Q01DX Z (ip), vehicle: carboxymethylcellulose (CMC)) was 113 % of control.
